Tests used:
Assay in all cases: relative viability (nuclei count vs DMSO), 5 days (fraction); higher = more cells survive
PC-3 [JPC-3] = tested on: PC-3 [JPC-3]
How it was run: (§1)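 Cells from lung cancer lines were seeded into 1536-well plates and, one day later, dosed by pin tool. Treatments were either a single drug or a fixed dose of an anchor drug with five library-drug doses (not always all listed) in √10 steps. After 5 days, nuclei were stained in a one-step fixation (final 0.05% Triton X-100, 1% formaldehyde, 1 ug/ml Hoechst) and counted on 4× images, and relative viability is the treated-to-vehicle nuclei ratio, as the median of duplicate plates.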

A-427 = tested on: A-427
How it was run: as §1

NCI-H1975 = tested on: NCI-H1975
How it was run: as §1

HCC-78 = tested on: HCC-78
How it was run: as §1

HOP-62 = tested on: HOP-62
How it was run: as §1

NCI-H1792 = tested on: NCI-H1792
How it was run: as §1

NCI-H647 = tested on: NCI-H647
How it was run: as §1

NCI-H1915 = tested on: NCI-H1915
How it was run: as §1

SK-LU-1 = tested on: SK-LU-1
How it was run: as §1

NCI-H2228 = tested on: NCI-H2228
How it was run: as §1

NCI-H358 = tested on: NCI-H358
How it was run: as §1

LXF-289 = tested on: LXF-289
How it was run: as §1

LC-2-ad = tested on: LC-2-ad
How it was run: as §1

HCC-15 = tested on: HCC-15
How it was run: as §1

NCI-H2126 = tested on: NCI-H2126
How it was run: as §1

NCI-H2347 = tested on: NCI-H2347
How it was run: as §1

NCI-H1734 = tested on: NCI-H1734
How it was run: as §1

NCI-H1755 = tested on: NCI-H1755
How it was run: as §1

SW 1573 = tested on: SW 1573
How it was run: as §1

LOU-NH91 = tested on: LOU-NH91
How it was run: as §1

NCI-H460 = tested on: NCI-H460
How it was run: as §1

RERF-LC-KJ = tested on: RERF-LC-KJ
How it was run: as §1

CC(C)Oc1cc(Nc2nc(N[C@@H](C)c3ccc(F)cn3)ncc2Cl)n[nH]1 [AZ23] + C[C@@H](Oc1cc(-c2cnn(C3CCNCC3)c2)cnc1N)c1c(Cl)ccc(F)c1Cl [Crizotinib] (partner 1 µM)
relative viability (PC-3 [JPC-3]; first compound 0.01 µM): 1.3 | relative viability (PC-3 [JPC-3]; first compound 0.03162 µM): 1.07 | relative viability (PC-3 [JPC-3]; first compound 0.3162 µM): 0.91 | relative viability (A-427; first compound 0.01 µM): 0.942 | relative viability (A-427; first compound 0.03162 µM): 0.951 | relative viability (A-427; first compound 0.3162 µM): 0.754 | relative viability (NCI-H1975; first compound 0.01 µM): 1.44 | relative viability (NCI-H1975; first compound 0.03162 µM): 0.953 | relative viability (NCI-H1975; first compound 0.3162 µM): 1.09 | relative viability (HCC-78; first compound 0.01 µM): 0.318 | relative viability (HCC-78; first compound 0.03162 µM): 0.39 | relative viability (HCC-78; first compound 0.3162 µM): 0.336 | relative viability (HOP-62; first compound 0.01 µM): 0.992 | relative viability (HOP-62; first compound 0.03162 µM): 0.912 | relative viability (HOP-62; first compound 0.3162 µM): 1.08 | relative viability (NCI-H1792; first compound 0.01 µM): 1.47 | relative viability (NCI-H1792; first compound 0.03162 µM): 1.27 | relative viability (NCI-H1792; first compound 0.3162 µM): 1.01 | relative viability (NCI-H647; first compound 0.01 µM): 1.71 | relative viability (NCI-H647; first compound 0.03162 µM): 1.37 | relative viability (NCI-H647; first compound 0.3162 µM): 1.3 | relative viability (NCI-H1915; first compound 0.01 µM): 1.28 | relative viability (NCI-H1915; first compound 0.03162 µM): 0.936 | relative viability (NCI-H1915; first compound 0.3162 µM): 0.979 | relative viability (SK-LU-1; first compound 0.01 µM): 0.94 | relative viability (SK-LU-1; first compound 0.03162 µM): 1.05 | relative viability (SK-LU-1; first compound 0.3162 µM): 0.978 | relative viability (NCI-H2228; first compound 0.01 µM): 0.64 | relative viability (NCI-H2228; first compound 0.03162 µM): 0.449 | relative viability (NCI-H2228; first compound 0.3162 µM): 0.33 | relative viability (NCI-H358; first compound 0.01 µM): 0.522 | relative viability (NCI-H358; first compound 0.03162 µM): 0.781 | relative viability (NCI-H358; first compound 0.3162 µM): 0.654 | relative viability (LXF-289; first compound 0.01 µM): 0.862 | relative viability (LXF-289; first compound 0.03162 µM): 0.859 | relative viability (LXF-289; first compound 0.3162 µM): 0.79 | relative viability (LC-2-ad; first compound 0.01 µM): 0.471 | relative viability (LC-2-ad; first compound 0.03162 µM): 0.458 | relative viability (LC-2-ad; first compound 0.3162 µM): 0.436 | relative viability (HCC-15; first compound 0.01 µM): 1.1 | relative viability (HCC-15; first compound 0.03162 µM): 0.881 | relative viability (HCC-15; first compound 0.3162 µM): 0.884 | relative viability (NCI-H2126; first compound 0.01 µM): 1.24 | relative viability (NCI-H2126; first compound 0.03162 µM): 1.11 | relative viability (NCI-H2126; first compound 0.3162 µM): 1.05 | relative viability (NCI-H2347; first compound 0.01 µM): 0.736 | relative viability (NCI-H2347; first compound 0.03162 µM): 0.861 | relative viability (NCI-H2347; first compound 0.3162 µM): 0.654 | relative viability (NCI-H1734; first compound 0.01 µM): 0.713 | relative viability (NCI-H1734; first compound 0.03162 µM): 0.782 | relative viability (NCI-H1734; first compound 0.3162 µM): 0.76 | relative viability (NCI-H1755; first compound 0.01 µM): 1.1 | relative viability (NCI-H1755; first compound 0.03162 µM): 1.01 | relative viability (NCI-H1755; first compound 0.3162 µM): 0.964 | relative viability (SW 1573; first compound 0.01 µM): 0.915 | relative viability (SW 1573; first compound 0.03162 µM): 0.997 | relative viability (SW 1573; first compound 0.3162 µM): 0.727 | relative viability (LOU-NH91; first compound 0.01 µM): 0.719 | relative viability (LOU-NH91; first compound 0.03162 µM): 0.727 | relative viability (LOU-NH91; first compound 0.3162 µM): 0.771 | relative viability (NCI-H460; first compound 0.01 µM): 0.827 | relative viability (NCI-H460; first compound 0.03162 µM): 1.04 | relative viability (NCI-H460; first compound 0.3162 µM): 0.834 | relative viability (RERF-LC-KJ; first compound 0.01 µM): 1 | relative viability (RERF-LC-KJ; first compound 0.03162 µM): 1 | relative viability (RERF-LC-KJ; first compound 0.3162 µM): 0.915

Reference: the supplement of paper PMC10307832
